Experimental findings from ChEMBL document CHEMBL1201862, “PubChem BioAssay data set” (2004) are described below.

The structures appear in SMILES notation.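 Step 1: Grow cells in 96-well plates. Step 2: Expose to compound for 48 hours at 5 concentrations. Step 3: Interpolate endpoints linearly; if unreached, use highest concentration. Abbreviation: GI50, concentration required for 50% inhibition of growth.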 The source made the active and inactive calls. Cut-off read from the data, not from the text of the source: active = GI50 up to about 1.1 µM and inactive = higher. Bounds are passed on as bounds.

Among the test systems are A498; COLO 205; EKVX; HCT-15; Hs-578T; IGROV-1; MCF7; NCI-H23; OVCAR-3; OVCAR-5; PC-3; RPMI-8226; SF-268; SF-539; SK-MEL-5; SNB-19; SNB-75; SR; T47D; UO-31.
Common to all, as to experiment: NCI-60 cell line screen, 48 h

For the molecule `C=C1C(=O)C23CC1C[C@H](OC(C)=O)[C@H]2C1(C)C(OC(C)=O)C[C@H](O)C(C)(C)[C@H]1C(=O)[C@@H]3OC(C)=O` (some centres not stated), the GI50 with A498 is 16.2 µM (inactive); in the experiment on COLO 205, 2.17 µM (inactive); in the experiment on EKVX, 6.84 µM (inactive); with HCT-15 it was 4.37 µM; with Hs-578T it was 3.98 µM (inactive); in the experiment with IGROV-1, 12.4 µM (inactive). Moreover, the GI50 in the experiment with MCF7 is 3.93 µM (inactive); with NCI-H23, 3.58 µM (inactive); in the experiment on OVCAR-3, 5.71 µM (inactive); in the experiment on OVCAR-5, 9.51 µM (inactive); in the experiment on PC-3 it was 10.3 µM (inactive); with RPMI-8226 it was 1.33 µM (inactive). Besides, the GI50 with SF-268 was 9.08 µM (inactive); in the experiment on SF-539, 2.69 µM (inactive); with SK-MEL-5, 13.9 µM (inactive); in the experiment on SNB-19, 18.5 µM (inactive); with SNB-75, 18.4 µM (inactive); in the experiment on SR it was 2.47 µM (inactive). The GI50 with T47D was 2.72 µM (inactive); in the experiment on UO-31 it was 4.93 µM (inactive).

As for `CCCCN1/C(=N/Nc2n[nH]c(=O)c3ccccc23)SCC1c1ccc(Cl)cc1` (configuration not stated), the GI50 in the experiment with A498 is 3.47 µM (inactive); in the experiment on COLO 205, 11.8 µM (inactive); in the experiment on EKVX, 4.27 µM (inactive); with HCT-15, 6.52 µM; in the experiment with Hs-578T it was 15.1 µM (inactive); in the experiment on IGROV-1 it was 6.43 µM (inactive). The GI50 with MCF7 was 10.6 µM (inactive); with NCI-H23 it was 1.64 µM (inactive); in the experiment on OVCAR-3, 15 µM (inactive); in the experiment on OVCAR-5, 29.1 µM (inactive); in the experiment with PC-3, 14 µM (inactive); in the experiment with RPMI-8226, 4.72 µM (inactive). In addition, the GI50 is 6.64 µM (inactive) in the experiment with SF-268; 12.7 µM (inactive) in the experiment with SF-539; 3.55 µM (inactive) in the experiment with SK-MEL-5; 10.6 µM (inactive) in the experiment with SNB-19; 18.6 µM (inactive) with SNB-75; 4.73 µM (inactive) in the experiment on SR. The GI50 was 4.29 µM (inactive) in the experiment with T47D and 18.7 µM (inactive) in the experiment with UO-31.

Turning to `CC1=CCC[C@@H]2[C@@](C)(Cc3cc(O)ccc3O)[C@H](C)CC[C@@]12C`, the GI50 in the experiment with A498 was 15.3 µM (inactive); in the experiment on COLO 205 it was 18.2 µM (inactive); in the experiment on EKVX it was 6.5 µM (inactive); with HCT-15, 5 µM; with Hs-578T, 5.92 µM (inactive); in the experiment with IGROV-1 it was 4.76 µM (inactive). For the same molecule, the GI50 with MCF7 is 4.97 µM (inactive); with NCI-H23 it was 5.87 µM (inactive); in the experiment with OVCAR-3, 4.69 µM (inactive); with OVCAR-5 it was 13.4 µM (inactive); in the experiment on PC-3, 4.33 µM (inactive); with RPMI-8226, 3.44 µM (inactive). In addition, the GI50 with SF-268 is 7.43 µM (inactive); with SF-539, 6.18 µM (inactive); in the experiment on SK-MEL-5, 5.43 µM (inactive); with SNB-19, 7.57 µM (inactive); with SNB-75, 5.47 µM (inactive); with SR, 2.38 µM (inactive). Also, the GI50 was 5.38 µM (inactive) in the experiment on T47D and 5.33 µM (inactive) in the experiment with UO-31.

Consider `CO[C@@H]1[C@@H](OC2OC(C)C(OC3CC(C)(O)C(OC(=O)CC(C)C)C(C)O3)C(N(C)C)C2O)[C@@H](CC=O)C[C@@H](C)C(=O)/C=C/C2O[C@H]2C[C@@H](C)OC(=O)C[C@H]1OC(C)=O` (some centres not stated), for which the GI50 was 23 µM (inactive) in the experiment with A498; 12.9 µM (inactive) in the experiment on COLO 205; 22.4 µM (inactive) in the experiment with EKVX; 18.6 µM in the experiment with HCT-15; 37.4 µM (inactive) in the experiment with Hs-578T; 10.8 µM (inactive) with IGROV-1. Also, the GI50 is 16.3 µM (inactive) with MCF7; 18.9 µM (inactive) in the experiment with NCI-H23; 14.3 µM (inactive) in the experiment with OVCAR-3; 17.1 µM (inactive) in the experiment with OVCAR-5; 15.5 µM (inactive) with PC-3; 17.7 µM (inactive) with RPMI-8226. In addition, the GI50 is 79.1 µM (inactive) with SF-268; 19.6 µM (inactive) with SF-539; 15.3 µM (inactive) in the experiment on SK-MEL-5; 22 µM (inactive) in the experiment on SNB-19; 31.6 µM (inactive) with SNB-75; 11.3 µM (inactive) with SR. Besides, the figures for the GI50 with T47D and in the experiment with UO-31 were 18.7 µM (inactive) and 20.7 µM (inactive), respectively.

With `Brc1ccc(/C(N=N/C(=N\Sc2ccccc2)c2ccc(Br)cc2)=N/Sc2ccccc2)cc1`, the GI50 was > 100 µM (inactive) in the experiment on A498; > 100 µM (inactive) in the experiment on COLO 205; > 100 µM (inactive) in the experiment on EKVX; over 100 µM in the experiment on HCT-15; > 100 µM (inactive) with Hs-578T; > 100 µM (inactive) in the experiment with IGROV-1. The GI50 in the experiment with MCF7, with NCI-H23, in the experiment with OVCAR-3, with OVCAR-5, with PC-3 and in the experiment with RPMI-8226 was > 100 µM (inactive) throughout. Also, the GI50 was > 100 µM (inactive) in the experiment on SF-268; > 100 µM (inactive) in the experiment on SF-539; > 100 µM (inactive) in the experiment on SK-MEL-5; > 100 µM (inactive) with SNB-19; > 71.8 µM (inactive) with SNB-75; > 86.9 µM (inactive) with SR. The GI50 in the experiment with T47D and in the experiment on UO-31 was > 100 µM (inactive) in each case.

Regarding `CCCCCC(=O)OC[n+]1cccc(-c2c(COC(=O)NC(C)C)c(COC(=O)NC(C)C)c3n2CCC3)c1`, the GI50 in the experiment with A498 was 15.9 µM (inactive); in the experiment with COLO 205, 62.5 µM (inactive); in the experiment with EKVX, > 100 µM (inactive); with HCT-15 it was 56.1 µM; in the experiment on Hs-578T it was 69.3 µM (inactive); in the experiment on IGROV-1, > 34.2 µM (inactive). Further, the GI50 in the experiment with MCF7 is 31.6 µM (inactive); in the experiment with NCI-H23, 28.8 µM (inactive); with OVCAR-3, 54.1 µM (inactive); in the experiment on OVCAR-5, > 63.5 µM (inactive); in the experiment on PC-3, 44.3 µM (inactive); in the experiment with RPMI-8226, 32.7 µM (inactive). The GI50 with SF-268 is 28.5 µM (inactive); in the experiment on SF-539 it was 27.9 µM (inactive); in the experiment with SK-MEL-5, 40.6 µM (inactive); in the experiment on SNB-19 it was 74.3 µM (inactive); in the experiment on SNB-75, 33.7 µM (inactive); in the experiment with SR it was 5.78 µM (inactive). Also, the GI50 in the experiment with T47D was > 61.8 µM (inactive); with UO-31, 33.4 µM (inactive).

Regarding `C=CCC1(O)c2ccccc2C(=O)c2c(O)ccc(O)c21` (configuration not stated), the GI50 in the experiment on A498 was 4.36 µM (inactive); in the experiment with COLO 205, 13.3 µM (inactive); in the experiment with EKVX, 11.4 µM (inactive); with HCT-15, 3.61 µM; in the experiment with Hs-578T, 4.24 µM (inactive); in the experiment with IGROV-1 it was 5.98 µM (inactive). The GI50 with MCF7 is 4.11 µM (inactive); with NCI-H23, 10.7 µM (inactive); in the experiment on OVCAR-3, 5.65 µM (inactive); with OVCAR-5 it was 17.2 µM (inactive); in the experiment on PC-3 it was 8.2 µM (inactive); in the experiment with RPMI-8226 it was > 23.8 µM (inactive). In addition, the GI50 in the experiment with SF-268 is 10.5 µM (inactive); in the experiment on SF-539, 7.93 µM (inactive); with SK-MEL-5 it was 8.2 µM (inactive); in the experiment on SNB-19, 6.5 µM (inactive); in the experiment with SNB-75, 3.82 µM (inactive); in the experiment with SR it was 5.48 µM (inactive). Moreover, the values for the GI50 in the experiment with T47D and in the experiment with UO-31 were 7.74 µM (inactive) and 16.8 µM (inactive), respectively.

Consider `Oc1ccc(Cn2c(-c3ccc(O)c(O)c3)nc3ccccc32)cc1O`, for which the GI50 is 90.2 µM (inactive) in the experiment with A498; 17.4 µM (inactive) in the experiment with COLO 205; 27.9 µM (inactive) in the experiment with EKVX; 7.48 µM in the experiment on HCT-15; 5.79 µM (inactive) with Hs-578T; 11.9 µM (inactive) with IGROV-1. In addition, the GI50 with MCF7 was 30.1 µM (inactive); in the experiment with NCI-H23, 23.3 µM (inactive); in the experiment on OVCAR-3 it was 14.4 µM (inactive); with OVCAR-5, 38.1 µM (inactive); in the experiment with PC-3, 22.1 µM (inactive); with RPMI-8226, 13.3 µM (inactive). In addition, the GI50 in the experiment on SF-268 was 11.5 µM (inactive); in the experiment with SF-539, 7.45 µM (inactive); with SK-MEL-5 it was 14.7 µM (inactive); in the experiment with SNB-19, 9.2 µM (inactive); with SNB-75, 12.1 µM (inactive); with SR, 3.72 µM (inactive). The GI50 in the experiment with T47D is 10.6 µM (inactive); in the experiment with UO-31, 10.8 µM (inactive).

For the molecule `Cc1nc(N)c(N2CCN(S(N)(=O)=O)CC2)c(O)n1`, the GI50 in the experiment with A498 is > 100 µM (inactive); with COLO 205 it was > 100 µM (inactive); in the experiment on EKVX, > 100 µM (inactive); in the experiment with HCT-15, over 100 µM; in the experiment on Hs-578T, > 100 µM (inactive); in the experiment on MCF7 it was > 100 µM (inactive). For the same molecule, the GI50 in the experiment with NCI-H23, in the experiment on OVCAR-3, with OVCAR-5, in the experiment with PC-3, in the experiment on RPMI-8226 and with SF-268 was > 100 µM (inactive) throughout. For the same molecule, the GI50 in the experiment on SF-539, in the experiment with SNB-19, with SNB-75, in the experiment with SR, in the experiment with T47D and in the experiment with UO-31 was > 100 µM (inactive) throughout.

For the molecule `Cc1cc(S(=O)(=O)n2ccnc2Oc2ccccc2)c(SSc2cc(Cl)c(C)cc2S(=O)(=O)n2ccnc2Oc2ccccc2)cc1Cl`, the GI50 in the experiment with A498 is > 100 µM (inactive); in the experiment on COLO 205 it was > 100 µM (inactive); with EKVX, 5.31 µM (inactive); with HCT-15, over 100 µM; with Hs-578T it was 1.95 µM (inactive); with IGROV-1, 42.6 µM (inactive). Further, the GI50 in the experiment with MCF7 is > 100 µM (inactive); in the experiment with OVCAR-3, > 100 µM (inactive); with OVCAR-5, > 100 µM (inactive); in the experiment on PC-3 it was > 100 µM (inactive); with RPMI-8226, > 100 µM (inactive); in the experiment with SF-268, 59.6 µM (inactive). For the same molecule, the GI50 in the experiment with SF-539 was > 100 µM (inactive); with SK-MEL-5 it was 24.9 µM (inactive); in the experiment with SNB-19, > 100 µM (inactive); in the experiment on SNB-75, 1.01 µM (active); in the experiment with SR it was 44 µM (inactive); in the experiment on T47D, > 100 µM (inactive). Besides, in the experiment on UO-31, the GI50 is > 100 µM (inactive).
